We go through nine molecules from PubChem BioAssay (NCI).

Where “and” joins values, the source holds several entries; their conditions need not be identical. Identical values can stand only once.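 The compound was tested at five concentrations on cells cultured in 96-well plates, with a 48-hour exposure period. At the GI50, growth is halved. TGI: total growth inhibition.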

Some test systems named below: 786-0 renal; EKVX NSCLC; HCT-15 colon; K-562 leukemia; LOX IMVI melanoma; SF-295 CNS; SF-539 CNS; SNB-75 CNS; U251 CNS; UACC-257 melanoma.
Holding throughout (assay): growth of human tumour cells (NCI), 48 h

With `C=C1C(=O)OC2CC3(C)OC3C3OC3C3=CC(OC3=O)C12` (stereo unspecified), the GI50 in the assay on 786-0 renal was 17.2 µM; with EKVX NSCLC, 19 µM; in the assay with HCT-15 colon it was 2.4 µM; in the assay with K-562 leukemia, 2.54 µM; in the assay on LOX IMVI melanoma, 4.18 µM; in the assay with SF-295 CNS it was 37.4 µM. Further, the GI50 in the assay on SF-539 CNS was 4.43 µM; with SNB-75 CNS, 14.5 µM; in the assay on U251 CNS it was 17.7 µM; with UACC-257 melanoma, 1.92 µM. The TGI with 786-0 renal is 33.8 µM; with EKVX NSCLC it was 41.9 µM; with HCT-15 colon it was 6.45 µM; in the assay with K-562 leukemia, 6.85 µM; in the assay on LOX IMVI melanoma, 12.1 µM; in the assay on SF-295 CNS, above 100 µM. The TGI was determined as 16.7 µM with SF-539 CNS, 38.6 µM with SNB-75 CNS, 35 µM in the assay on U251 CNS and 4.03 µM in the assay with UACC-257 melanoma.
For `O=C1C2Nc3ccccc3SC2C(=O)N1c1cccc([N+](=O)[O-])c1` (stereo unspecified), the TGI in the assay on 786-0 renal, in the assay on EKVX NSCLC, in the assay with HCT-15 colon, in the assay with K-562 leukemia, in the assay on LOX IMVI melanoma and in the assay with SF-295 CNS was above 100 µM throughout. Moreover, the TGI in the assay on SF-539 CNS, with SNB-75 CNS, with U251 CNS and with UACC-257 melanoma was above 100 µM each time.
With `Cc1cc2c(C(C)C)c(O)c(O)c(C=O)c2c(O)c1-c1c(C)cc2c(C(C)C)c(O)c(O)c(C=O)c2c1O` (tested in a mixture with another compound), the GI50 in the assay with 786-0 renal is 0.819 µM; in the assay with EKVX NSCLC it was 0.473 µM; in the assay on HCT-15 colon it was 0.79 µM; in the assay with K-562 leukemia, 0.425 µM; in the assay on LOX IMVI melanoma, 1.16 µM; with SF-295 CNS, 0.325 µM. Further, the GI50 was 1.33 µM in the assay on SF-539 CNS, 1.55 µM in the assay on SNB-75 CNS, 0.502 µM in the assay with U251 CNS and 1.79 µM in the assay on UACC-257 melanoma. Besides, the TGI with 786-0 renal is 3.29 µM; in the assay with EKVX NSCLC, 3.18 µM; in the assay on HCT-15 colon, 2.99 µM; with K-562 leukemia it was 20.7 µM; with LOX IMVI melanoma it was 2.54 µM; in the assay on SF-295 CNS, 1.71 µM. Further, the TGI came out at 4.42 µM in the assay on SF-539 CNS, 5.03 µM in the assay with SNB-75 CNS, 1.93 µM in the assay on U251 CNS and 4.12 µM in the assay on UACC-257 melanoma.
Regarding `Cc1cc(C)c2[s+]snc2c1`, the TGI with 786-0 renal, in the assay with EKVX NSCLC, in the assay on K-562 leukemia, in the assay on LOX IMVI melanoma, in the assay on SF-295 CNS and in the assay on SF-539 CNS was above 100 µM in each case. Besides, the TGI with SNB-75 CNS, with U251 CNS and in the assay on UACC-257 melanoma was above 100 µM each time.
Take `CC[C@@]1(OC(=O)CN)C(=O)OCc2c1cc1n(c2=O)Cc2cc3c(N)c4c(cc3nc2-1)OCO4`: the GI50 is below 0.0001 µM in the assay with 786-0 renal; 0.0808 µM in the assay with EKVX NSCLC; 0.0409 µM and 0.147 µM with HCT-15 colon; 0.00254 µM with K-562 leukemia; below 0.0001 µM in the assay on LOX IMVI melanoma; below 0.0001 µM in the assay on SF-295 CNS. Further, the GI50 is below 0.0001 µM in the assay with SF-539 CNS, 0.000442 µM with SNB-75 CNS, below 0.0001 µM with U251 CNS and 0.0158 µM in the assay on UACC-257 melanoma. The TGI was 0.0093 µM in the assay on 786-0 renal; above 100 µM with HCT-15 colon; 0.508 µM in the assay on K-562 leukemia; 0.000945 µM in the assay on SF-539 CNS; 0.824 µM with SNB-75 CNS; 0.0186 µM and 0.0571 µM in the assay with U251 CNS. This molecule also returned a TGI in the assay with UACC-257 melanoma of 0.228 µM.
With `Cc1cccnc1CNC1CC(NCc2ncccc2C)CC(NCc2ncccc2C)C1` (stereo unspecified), the GI50 in the assay with 786-0 renal is 2.15 µM; with EKVX NSCLC, 2.56 µM; with HCT-15 colon, 4.05 µM; in the assay with K-562 leukemia it was 2.38 µM; in the assay with LOX IMVI melanoma, 1.92 µM; with SF-295 CNS, 3.12 µM. In addition, the GI50 in the assay on SF-539 CNS was 2.92 µM; in the assay on SNB-75 CNS it was 2.21 µM; in the assay with U251 CNS, 1.81 µM; with UACC-257 melanoma, 1.74 µM. For the same molecule, the TGI with 786-0 renal came out at 4.55 µM; with EKVX NSCLC, 8.14 µM; with HCT-15 colon, 13.3 µM; in the assay on K-562 leukemia, 5.56 µM; with LOX IMVI melanoma, 3.96 µM; in the assay on SF-295 CNS, 8.6 µM. In addition, the TGI was found to be 9.38 µM in the assay with SF-539 CNS, 4.32 µM in the assay on SNB-75 CNS, 3.36 µM in the assay on U251 CNS and 3.58 µM in the assay on UACC-257 melanoma.
As to `CCc1oc2ccc(OC)c3c2c1C=CC=C3`, the TGI with 786-0 renal, in the assay on EKVX NSCLC, in the assay on HCT-15 colon, in the assay with K-562 leukemia, in the assay with LOX IMVI melanoma and in the assay with SF-295 CNS was above 100 µM in each case. The TGI in the assay on SF-539 CNS, with SNB-75 CNS, in the assay on U251 CNS and in the assay with UACC-257 melanoma was above 100 µM in each case.
On to `ClC1=C(Cl)C(Cl)=C(Cl)C1=Cc1ccc(Cl)cc1`, for which the GI50 in the assay on 786-0 renal was 0.604 µM; in the assay on EKVX NSCLC, 0.816 µM; in the assay with HCT-15 colon, 0.536 µM; in the assay with K-562 leukemia it was 0.388 µM; with LOX IMVI melanoma, 0.233 µM; with SF-295 CNS, 2.27 µM. Moreover, the GI50 in the assay with SF-539 CNS is 0.733 µM; with SNB-75 CNS, 1.44 µM; in the assay on U251 CNS, 0.344 µM; with UACC-257 melanoma, 1.37 µM. Moreover, the TGI in the assay with 786-0 renal was 1.64 µM; with EKVX NSCLC, 3.08 µM; in the assay with HCT-15 colon, 2.56 µM; with K-562 leukemia, 4.1 µM; with LOX IMVI melanoma, 0.71 µM; in the assay with SF-295 CNS, 8.85 µM. Further, the TGI in the assay on SF-539 CNS is 2.18 µM; with SNB-75 CNS, 3.26 µM; with U251 CNS, 1.23 µM; with UACC-257 melanoma, 3.3 µM.
`COc1ccc(-n2sc(=O)n(Cc3ccc(COC(=O)C(C)c4ccc(CC(C)C)cc4)cc3)c2=O)cc1` (stereo unspecified): the GI50 was 6.13 µM in the assay on 786-0 renal; 7.36 µM with EKVX NSCLC; 1.1 µM in the assay with HCT-15 colon; 1.43 µM with K-562 leukemia; 0.943 µM in the assay with LOX IMVI melanoma; 10.6 µM with SF-295 CNS. Further, the GI50 with SF-539 CNS was 5.12 µM; in the assay with SNB-75 CNS, 5.95 µM; in the assay on U251 CNS, 6.83 µM; in the assay with UACC-257 melanoma it was 2.02 µM. For the same molecule, the TGI in the assay on 786-0 renal was 12.9 µM; with EKVX NSCLC, 14.3 µM; in the assay on HCT-15 colon it was 2.86 µM; in the assay with K-562 leukemia, 10.4 µM; in the assay on LOX IMVI melanoma, 1.9 µM; with SF-295 CNS it was 24.1 µM. Also, the TGI stood at 10.9 µM in the assay on SF-539 CNS, 12.2 µM with SNB-75 CNS, 14.5 µM in the assay with U251 CNS and 8.81 µM in the assay with UACC-257 melanoma.
